Columns and labels:
[1] = TMZ-induced lymphopenia in patients with GBM; format: in vivo, human; conditions: after the first cycle (150-200 mg/m2/5 d), n=10
Description: (§1) It also induces transient, Grade 3 lymphopenia (<500 cells/uL) in 70% of patients with GBM after the first cycle (150-200 mg/m2/5 d) with nadirs occurring 14-21 days after treatment (n=10). TMZ treatment also leads to an increase in the proportion of TRegs in the peripheral blood (unpublished). Despite this, we have been able to induce and maintain potent EGFRvIII-specific humoral and cellular immune responses in patients with GBM receiving TMZ. Thus, we evaluated TMZ for its capacity to induce homeostatic proliferation and to enhance antigen-specific immune responses in a murine model. Markedly elevated levels of antigen-specific T-cells could be achieved and maintained in mice receiving antigen-specific vaccination after TMZ-induced lymphopenia when compared to normal hosts.

[2] = tested on: OVA-specific T-cells; experiment: Antigen-specific vaccination after TMZ-induced lymphopenia in mice, with or without anti-IL-2Rα; format: in vivo; conditions: TMZ pre-treatment
Description: as §1

[3] = tested on: newly-diagnosed, EGFRvIII+ GBM
Description: In patients with newly-diagnosed, EGFRvIII+ GBM, after resection and radiation/TMZ, patients received CDX-110 vaccinations biweekly×3, then monthly until tumor progression in combination with TMZ (200 mg/m^2×5/28 days). […] The others received saline in a double-blinded fashion.

[4] = tested on: human TRegs; experiment: Daclizumab on human TRegs in vitro; format: cell-based
[5] = after expansion post vaccination

## Cn1nnc2c(C(N)=O)ncn2c1=O [TMZ, temozolomide]
[1]
  patients with transient Grade 3 lymphopenia (<500 cells/uL): 70%
  time of lymphopenia nadirs after treatment: 14 to 21 days
[2]; 4 weeks post-vaccination
  OVA-specific T-cells, frequency of circulating CD8+ T-cells: 21.18%
[2]; [5]
  OVA-specific T-cells, absolute count after vaccination: 42.61 cells/uL
  OVA-specific T-cells, frequency of circulating CD8+ T-cells after vaccination: 10.64%
[2]; starting count
  OVA-specific T-cells, absolute count, start of expansion: 3.41 cells/uL blood
[2]; starting frequency
  OVA-specific T-cells, frequency of circulating CD8+ T-cells, start of expansion: 0.40%

## daclizumab: commercially available humanized IL-2Rα-specific antibody
[3]; both arms
  OS (overall survival): has not been reached
  TTP (time to progression): has not been reached
[3]; daclizumab 1 mg/Kg×1, preliminary analysis n=4
  overall CD8+ or CD4+ T-cell counts: without reducing
[3]; daclizumab arm, preliminary analysis n=4, p=0.01 t-test
  EGFRvIII-specific immune responses: enhanced
[3]; human, in vivo
  titer of cytotoxic EGFRvIII-specific IgG1 isotype antibodies: enhanced
[3]; reduction, daclizumab 1 mg/Kg×1 at first vaccine, preliminary analysis n=4, p=0.011 t-test
  Treg (CD4+CD25+CD45RO+FOXP3+) numbers, change from baseline: 82.4±7.1%
[4]; in vitro
  effector T-cell function: increase
  human TRegs: reduction
[4]; preliminary in vitro studies with human TRegs in the presence of daclizumab
  CD4+ T-cell responses: enhancement

Reference: patent US20150307614A1, “Enhanced immunological responses” (Duke University, priority 2009, published 2015)
